From patent publication US11866695B2, “Methods and systems and related compositions for mixtures separation with a solid matrix” (CALIFORNIA INSTITUTE OF TECHNOLOGY, priority 2019, dated 2024)
Entries after “also recorded” stand apart in the source; their conditions may differ. Where two headings read alike, the source gives them in different places.

Key:
[1] = Phase separation of compounds mixed at a 1:1 volume ratio; assay type: physicochemical; design: key: A “2” denotes phase separation into 2 distinct phases; a “1” forms a single phase
[2] = cited from earlier work
λ phage DNA = assay: Zymo Quick-Viral DNA/RNA kit extraction with additional TPW, LAMP with 2× diluted eluent; assay type: biochemical
Method: LAMP reactions contained the following concentrations of reagents: 1× Isothermal Amplification Buffer (20 mM Tris-HCl pH 8.8, 10 mM (NH4)2SO4, 50 mM KCl, 5 mM MgSO4, 0.1% Tween-20, B0537S, NEB, Ipswich, Mass., USA), an additional 2 mM MgSO4 (B1003S, NEB), 1.4 mM deoxynucleotide mix (N0447L or N0446S, NEB), […] Invitrogen Syto-9 (S34854, Thermo Fisher Scientific), […] Invitrogen bovine serum albumin (15561020, Thermo Fisher Scientific), 320 U/mL WarmStart Bst 2.0 (M0538L, NEB), and were supplemented with nuclease-free water (not DEPC-Treated, 4387936, Thermo Fisher Scientific) up to 10 μL. LAMP primers (Integrated DNA Technologies (IDT), Coralville, Iowa, USA) were designed, ordered, and added at NEB's recommended concentrations of […] FIP/BIP, 0.2μM F3/B3, and […] LoopF/B.
Each 96-well plate was sealed and briefly spun. Heating and real-time imaging were performed on the Bio-Rad CFX-96 Touch Real-Time PCR Detection System (1855195, Bio-Rad). Each 96-well plate was cooled to 12° C. for 2 min, held at 68° C. for 47 min with 35-second fluorescence read intervals, and a melt-curve analysis was performed. For the E. coli DNA dilution experiment, the 68° C. step was held for 105 min. Time-to-positive (TTP) was determined when the software's automated baseline corrected fluorescence reached 1000 RFU.
Three different silica-column kits were tested, including: Zymo ZR Viral DNA/RNA Kit (outdated protocol, D7021), Zymo Quick-DNA/RNA Kit (updated protocol, D7021), and the QIAquick PCR Purification Kit (28104, Qiagen). For all silica-column kits, fresh collection tubes were used after each spin and centrifugation speeds were set to 16,000×g. Centrifugation was performed on either an Eppendorf 5415D centrifuge (Eppendorf, Hauppauge, N.Y., USA) or a Thermo Fisher Scientific AccuSpin Micro 17R centrifuge (13-100-676). It was noted that the QIAquick protocol calls for 17,900×g, but instead was run at 16,000×g which was the max speed for the Eppendorf 5415D. […]

[3] = test system: qPCR spiked with 5×104 copies λ phage DNA; assay type: biochemical; settings: 1 μL candidate in 11 μL total; for Avg Cq: N.D. = not detected within 40 cycles; for ΔCq: minus the No additive control
Method: Heating and real-time imaging were performed on the Bio-Rad CFX-96 Touch Real-Time PCR Detection System by heating to 95° C. for 5 min, cycling 40 times between 95° C. for 15 s, 60° C. for 15 s, and 72° C. for 20 s, and taking a melt-curve analysis. For the E. coli DNA dilution experiment, qPCR was run for 60 cycles. Fluorescence readings were taken at the end of each extension step. Quantification cycle (Cq) was determined when the software's automated baseline corrected fluorescence reached 200 RFU.
Criterion 1a was investigated directly by performing qPCR and LAMP reactions. Reactions were spiked with λ phage DNA, diluted up to 10 μL, and an additional 1 μL of different wash buffer candidates was added to a total of 11 μL. […] As an experimental control, a “No Additive” condition was tested, which was a 10 μL reaction with optimized reaction conditions and no inhibitors. To control for the effects of a 1 μL dilution on the reaction, a “Water” condition which was an 11 μL reaction with no inhibitors was also tested.

LAMP reaction mix = assay: 3-step Zymo ZR extraction with viral wash buffer replaced, LAMP with 2× dilution of eluent; assay type: biochemical; settings: wash replaces viral wash buffer; 5 μL eluent in 10 μL
Method: Three different silica-column kits were tested, including: Zymo ZR Viral DNA/RNA Kit (outdated protocol, D7021), Zymo Quick-DNA/RNA Kit (updated protocol, D7021), and the QIAquick PCR Purification Kit (28104, Qiagen). For all silica-column kits, fresh collection tubes were used after each spin and centrifugation speeds were set to 16,000×g. Centrifugation was performed on either an Eppendorf 5415D centrifuge (Eppendorf, Hauppauge, N.Y., USA) or a Thermo Fisher Scientific AccuSpin Micro 17R centrifuge (13-100-676). It was noted that the QIAquick protocol calls for 17,900×g, but instead was run at 16,000×g which was the max speed for the Eppendorf 5415D. For both Zymo kits, 750 μL lysed sample was prepared by mixing 125 μL sample with 125 μL Zymo 2×DNA/RNA Shield and 500 μL Viral DNA/RNA Buffer. For the Zymo ZR Viral DNA/RNA kit, 750 μL lysed sample was centrifuge for 1 min, 500 μL Zymo Viral Wash Buffer was centrifuged for 2 min, and 50 μL nuclease-free water was centrifuged for 30 s into a clean 1.5 mL tube. Optionally, either a dry spin or 300 μL TPW was centrifuged for 2 min in between the Viral Wash Buffer and elution steps. […] For the QIAquick PCR Purification Kit, 125 μL sample was mixed with 625 μL Buffer PB without indicator. 750 μL lysed sample was centrifuged for 30 s, followed by 750 μL Buffer PE for 30 s, a dry spin for 1 min, and 50 μL nuclease-free water for 1 min. Optionally, the dry spin was skipped or the dry spin was replaced with a 300 μL TPW and centrifuged for 1 min.
Exchanging the ethanol wash for a TPW could be useful for applications in which the starting sample is already relatively pure. For this experiment, Zymo ZR kit was used, which has three centrifugation steps: lysis (sample, shield, lysis buffer), wash (ethanol-based viral wash buffer), and elution (water). […] An aliquot of 5 μL of the resulting eluent was added to 5 μL of LAMP reaction mix and amplified at 68° C. Eluent from the manufacturer protocol amplified in 5.7 min. […]

Row | Structure (SMILES) | Number of phases ([1]; mixed 1:1 (volume) with Ethanol) | Number of phases ([1]; mixed 1:1 (volume) with H2O) | Number of phases ([1]; mixed 1:1 (volume) with VWB (80% ethanol v/v)) | Solubility of TPW Candidate in water [2] | Solubility of water in TPW Candidate [2] | reduction in TTP vs manufacturer protocol (λ phage DNA; 2× eluent dilution) | TTP (λ phage DNA; 2× eluent dilution, 3 columns) | TTP (λ phage DNA; all 27 wells) | Avg Cq [3] | ΔCq [3] | LAMP performance of eluent (LAMP reaction mix) | Solubility of TPW Candidate in water ([2]; in words) | Solubility of water in TPW Candidate ([2]; in words)
1 | CCCCCCCCCCCO [1-undecanol] | 1 | 2 | 1 | 0.0015 g/100 mL | 3.4 g/100 g | 0.78 min | 6.00 ± 0.04 min | 10.23 ± 0.06 min | 19.67 cycles | −0.42 cycles | – | – | –
2 | CCO [Ethanol, ethanol] | – | – | – | – | – | – | – | – | 25.30 cycles | 5.21 cycles | slightly outperforms the viral wash buffer; also recorded: performed slightly better (earlier TTP) than the viral wash buffer | Miscible | Miscible
